Data: a melting point compilation (Tetko et al.; mined from patent text by program, amines drawn as free bases though some values may be those of a salt)

| SMILES | melting point |
| --- | --- |
| Nc1c(-c2cc(Cl)ccc2O)c2c(C(F)(F)F)c(Cl)ccc2[nH]c1=O | 139 to 140 °C |
| CC(=S)NC[C@H]1CN(c2ccc3c(c2)CCCc2cnoc2-3)C(=O)O1 | 185 to 195 °C |
| CCC1(O)CCC2(C)C(CCC3C4CCC(C5(C)OCCO5)C4(C)CC(=O)C32)C1 (stereo unspecified) | 144 °C |
| COc1cccc2c1CCc1c-2occ(C=O)c1=O | 201 to 202 °C |
| COc1cc2c(-c3cc4cc(Cl)cnc4[nH]3)cn(C)c2cc1OC | 282 °C |
| CC(O)C1COCc2nc3c(N)nc4ccccc4c3n21 (stereo unspecified) | 208 to 209 °C |
| CN1CC=C(c2c[nH]c3ccc(NS(=O)(=O)N(C)C)cc23)CC1 | 207 to 208 °C |
| CC(CCCC(C)(C)C)C1CCC2C3C(=O)C=C4CC(O)CCC4(C)C3CCC12C (stereo unspecified) | 176 to 178 °C |
| CNC1=CC(=O)C(Nc2ncnc3cc(OC)c(OC)cc23)=CC1=O | 283 to 285 °C |
| CCN(CC)C(=O)CCC(=O)Oc1cc(-n2c(=O)cc(C(F)(F)F)n(C)c2=O)c(F)cc1Cl | 91 to 93 °C |
| Cc1ccc(N2CCN(c3c(C)c(C)c4c(c3C)CC(C)(C)O4)CC2)cc1C | 137 to 139 °C |
| CC(C)NCC(O)COc1cccc2c1SCCC2 (stereo unspecified) | 91 to 92 °C |
| O=S(=O)(c1cnn(-c2c(Cl)cc(C(F)(F)F)cc2Cl)c1Br)C(F)(F)F | 90 to 91 °C |
| COc1nc(OC)nc(-n2cnc(SC)n2)n1 | 160 °C |
| Cc1ccc(S(=O)(=O)n2c(-c3cn(C)c4ccc(-c5ccncc5)cc34)cc3cccnc32)cc1 | 82 to 85 °C |
| COc1ccc(C(=O)N2CCN(C(=O)C3=Cc4cc(OC)c(OC)cc4CC3)CC2)cc1OC | 190 to 191 °C |
| CCCCCCCCCCCCC(=O)CC | 84 to 86 °C |
| Cc1cc(C#N)cc(C)c1OCCCc1cncs1 | 71 to 73 °C |
| COc1cc(C)cc2c1C(N1CC[N+]([O-])(C(=O)Cc3ccncc3)CC1)c1ncc(Br)cc1CC2 (single isomer, unassigned; (-)) | 111 to 116 °C |

| SMILES | melting point |
| --- | --- |
| CCC1(c2cccs2)NC(=O)NC1=O (stereo unspecified) | 173 to 174 °C |
| CN(C)C(=O)c1nc(-c2ccccc2)nc2c1c1cc(Cl)ccc1n2C | 222 to 224 °C |
| CCOC(=O)C1(c2ccc3c(c2)OCC(Cc2ccc(-c4ccccc4)cc2)C3=O)CCCC1 (stereo unspecified) | 50 to 56 °C |
| Cc1cn(CCCC(=O)O)c2ccccc12 | 82 to 84 °C |
| N#Cc1cc([N+](=O)[O-])cc(C#N)c1O | 228 to 231 °C |
| COC(=O)C(C#N)=CC(C)=CN(C)C | 163 to 164 °C |
| CCc1cc2cc([N+](=O)[O-])ccc2s1 | 55 °C |
| COc1ccc(NC(N)=O)c(C#N)c1OC | 198 to 200 °C |
| CCCC1=C(C#N)C(c2ccccc2Cl)c2c(n[nH]c2C2CCCC2)N1 (stereo unspecified) | > 270 °C |
| CN1CCc2cccc3c4c(n(c23)CC1)CCSC4 | 123 to 125 °C |
| COc1ccccc1C=Cc1nc2c(c(=O)n(C)c(=O)n2C)n1C | 238 to 240 °C |
| CC(C)(C)OC(=O)C(F)=CC1C(C(=O)OC(C#N)c2cccc(Oc3ccccc3)c2)C1(C)C (stereo unspecified) | 103 °C |
| CNC(=O)ON=C1N=C(c2ccc(Cl)cc2)C(C)(C)S1 | 147 to 149 °C |
| OC1(c2ccc(Br)cc2)CCC2(CC1)OCCO2 | 156 to 158 °C |
| CCC(C(C)=CC(CNC(=O)Cc1cccnc1)=NO)[N+](=O)[O-] (stereo unspecified) | 140 to 141 °C |
| CCOC(=O)C(=CNN(C)C)C(=O)c1cc(F)c(F)c(F)c1F | 81 °C |
| N#CN=C(Nc1ccc([N+](=O)[O-])cc1O)Nc1ccccc1Cl | 163 to 164 °C |
| CNCCCOc1cc(F)c(-c2c(Cl)nc(-c3cnccn3)nc2N[C@@H](C)C(F)(F)F)c(F)c1 | 48 to 50 °C |
| COc1cc(NS(=O)(=O)c2ccc3c(ccn3C)c2)cc(OC)c1OC | 188 to 189 °C |

Results, then the compound that gave them:

| melting point | SMILES |
| --- | --- |
| 244 °C | COc1ccc(-c2nc(N)c(C#N)nc2-c2ccc(=O)n(C(C)C)c2)cc1 |
| 197 to 198 °C | CCOc1cc2c(cc1S(=O)(=O)c1ccccc1)[C@@H](N1CCCC1=O)[C@H](O)C(C)(C)O2 (relative stereo) |
| 149 to 151 °C | COc1ccc(N2CCN(c3c(C)c(C(C)O)c4c(c3C)C(c3ccc(C)cc3)C(C)(C)O4)CC2)cc1 (stereo unspecified) |
| 266 to 267 °C | N#Cc1ccc(-c2cc(-c3ccc(O)c(F)c3)nc3ccc(O)cc23)cc1 |
| 70 to 71 °C | O=C(O)CCCc1ccc(-c2cccc(Cl)c2Cl)cc1 |
| 238 to 239 °C | CC1C(=O)N(Oc2ccc(F)cc2F)Cc2ccc(NC3CCOCC3)nc21 (stereo unspecified) |
| 156 to 159 °C | CCc1nc2cc(Nc3nccc(-c4ccc(N5CCNCC5)nc4)n3)ccc2o1 |
| 73 to 75 °C | CCCNC(=O)C1(CCCCO)c2ccccc2-c2ccccc21 |
| > 250 °C | CC(=O)Nc1cccc(/C=C/C(=O)N2CC(CCl)c3c2cc(N)c2ccccc32)c1 (stereo unspecified) |
| 301 to 302 °C | N#Cc1ccc(-c2ccc(-c3ccc(C#N)cn3)o2)cc1 |
| 145 to 146 °C | COC(=O)Oc1ccc(N=C(C#N)c2ccccc2)cc1 |
| 98 to 99 °C | CCCOC(=O)N(C)SN(C(=O)NC(=O)c1c(F)cccc1F)c1ccc(Oc2ccc(C(F)(F)F)cc2Cl)cc1F |
| 69 °C | CCCCOc1ccc(Cc2nn(-c3ccccc3Cl)c(=S)o2)cc1 |
| 243 to 245 °C | Cn1c(COCCn2cnc3c(N)nc4ccccc4c32)cc2ccccc21 |
| 174 °C | COCOc1ccc(C(=O)O)c(OCc2ccc(Cl)cc2Cl)c1C |
| 236 to 238 °C | CC(=O)Nc1nc(-c2ccc(F)cc2)c(-c2ccc(=O)n(C(C)C)n2)s1 |
| 128 to 130 °C | O=C1c2ccccc2C(=O)N1CCCN1CCC(c2noc3cc(F)ccc23)CC1 |

| melting point | SMILES |
| --- | --- |
| 197 to 199 °C | COc1cc2c(cc1OC)C(=O)C(=Cc1ccc(O)cc1)CC2 |
| 149 to 151 °C | COC(=O)CCC(=O)c1ccc(-c2ccc(C#N)cc2)cc1 |
| 115 to 120 °C | Nc1ccc(-n2cnn(-c3ccc(OC(F)(F)F)cc3)c2=O)cc1 |
| 215 to 216 °C | Nc1ccccc1NC(=O)c1cc2cc(OCCO)ccc2s1 |
| 167 to 168 °C | COc1ccc(S(=O)(=O)Nc2ccccc2NC(=O)c2ccccc2)cc1 |
| 194 to 195 °C | O=C(NCc1ccccn1)Nc1cc(N2CC(CCc3ccccc3)OC2=O)ccn1 (stereo unspecified) |
| 209 to 212 °C | O=C1CC(c2cccc(-n3ccnn3)c2)=Nc2ccc(-c3ccccc3F)cc2N1 |
| 228 to 229 °C | O=C(Nc1cccnn1)N1CCN(c2nccc(-c3c(F)cccc3F)n2)CC1 |
| 263 to 265 °C | CCOC(=O)c1cnc(Nc2ccc(OCC)cc2)[nH]c1=O |
| 183 to 184 °C | Cc1ccc(-c2ccc3c(c2)C=C(C(=O)Nc2ccc(CNC4CCCCC4)cc2)CCO3)cc1 |
| 230 to 240 °C | COc1cc2c(cc1OCc1ccccc1)CC(C(=O)O)NC2 (racemic) |
| 140 to 144 °C | O=C1NCC[C@@H]1NCc1ccc(OCc2cccc(F)c2)cc1 |
| 75 °C | O=C1CCc2ccc(Oc3c(F)cc(C(F)(F)F)cc3Cl)cc21 |
| 50 to 51 °C | O=C(CCCCOc1ccccc1)C(F)(F)F |
| 198 to 200 °C | Cc1ccc(-c2c(-c3ccc(S(N)(=O)=O)cc3)cnn(-c3ccc(F)c(F)c3)c2=O)cc1F |
| 153 to 154 °C | O=Cc1[nH]ccc1-c1ccc(I)cc1 |
